Results taken from patent US9737514B2, “Methods and compositions for the treatment of proliferative vascular disorders” (Children's Medical Center Corporation, priority 2011, dated 2017).

How the values were obtained:
HemSCs [1] = conditions: cited from earlier work
HemSC = experiment: Calcium influx assay by fluorescence microscopy; assay type: cell-based, human
Procedure: FIG. 10B depicts graphs of the effect of nifedipine on spontaneous Ca^2+ oscillations in HemSC treated with Rapamycin or DMSO for 6 days. Each line indicates the whole-cell Ca^2+ changes in an individual cell.
To test for functional features of SMCs, calcium influx in HemSC treated with Rapamycin or DMSO for six days was analyzed.
To monitor cellular calcium influxes, HemSC treated with Rapamycin (20 ng/ml) or DMSO for six days were labeled with a single wavelength calcium dye, Fluo-4 (1 Molecular Probes), by incubation in 5% CO2 at 37° C. for 20 min. […] Fluorescence intensity at a single wavelength (488 nm excitation) over time was followed using a Nikon Eclipse TE-2000-E Fluorescence microscope equipped with a 1000 W High Pressure Mercury Burner (Olympus Optical Company). Alterations in intracellular calcium were quantified by measuring changes in fluorescence intensity in a region of interest drawn over the entire cell including the nucleus. Background fluorescence was subtracted from fluorescence values at each time point. Results are presented as F/Fo, where F is the average fluorescence intensity in the region of interest (ROI) at each time point during time lapse imaging, and Fo is the fluorescence intensity in the ROI at time=0. […]

BM-MSCs = experiment: BM-MSC proliferation dose-response; assay type: cell-based, human; conditions: FIG. 1A
Procedure: (§1) FIG. 1A depicts dose-response curves of HemSCs (squares), NHDF (triangles), and BM-MSCs (circles) treated with Rapamycin. Error bars denote standard deviation (SD) (n=32). FIG. 1B depicts a graph of the quantification of PCNA-positive cells in HemSCs treated with Rapamycin. Error bars denote SD (n=8). *P<0.05 compared with the non-treated group. FIG. 1C depicts the results of a Western blot for phospho4EBP-1(565) and total 4EBP-1 in HemSCs serum-starved for 24 hours, pretreated with vehicle alone (“0”) or rapamycin for 20 minutes and then stimulated with media containing serum and growth factors for 30 minutes. FIG. 1D depicts a graph of the bands in FIG. 1C quantified using ImageJ; normalized to β-actin.
(§2) Proliferating cell nuclear antigen (PCNA) served as an additional measure of proliferation (Prelich et al., 1987) (Hall and Levison, 1990).

mTOR = experiment: Western blot of phosphorylated 4EBP1 in HemSCs; assay type: cell-based, human; conditions: HemSCs serum-starved 24 hours, pretreated 20 minutes
Procedure: as §1

cbEPCs [2] = experiment: Endothelial proliferation assay; assay type: cell-based, human; conditions: 20 ng/ml, 48 hours, not rescued by VEGF-A or PLGF-1
Procedure: FIG. 11A depicts a graph of cell number of cbEPCs treated for 48 hours with Rapamycin or (20 ng/ml) DMSO as a control, in the presence of either VEGF-A (37.5 ng/ml), PLGF-1 (37.5 ng/ml) or the combination. Cell number was quantified by automatic microscopy and software analysis. Bars denote the standard deviation with n=32 for each treatment combination. FIG. 11B depicts a graph of cell number of cbEPCs treated for 48 hours with Everolimus (20 ng/ml), Temsirolimus (200 ng/ml) or DMSO as a control, in the presence of VEGF-A (37.5 ng/ml) or PLGF-1 (37.5 ng/ml). Cell number was quantified by automatic microscopy and software analysis. Bars denote the standard deviation with n=32 for each treatment combination.
To study this effect, Rapamycin was tested on cbEPCs.
cbEPCs at passages 6-10 were plated in 384-well plates at 1000 cells per well. 24 hours later, media was removed and replaced with EBM-2 5% fetal bovine serum media containing the recombinant human proteins VEGF-A at 37.5 ng/ml (R&D Systems) or PlGF-1 at 37.5 ng/ml (R&D Systems), and the drug compounds Rapamycin (20 ng/ml), Everolimus 20 ng/ml or Temsirolimus 200 ng/ml in replicates of 32. 48 hours later, cells were fixed and stained with Hoechst (Invitrogen). Following image capture by automated fluorescence microscopy, cell number was determined using MetaXpress Software.

HemSCs [3] = experiment: Adipogenic differentiation of HemSCs; assay type: cell-based, human; conditions: adipogenic differentiation protocol
Procedure: (§6) Whether the multi-lineage differentiation of HemSCs could be altered by Rapamycin was assayed.
(§7) Differentiation assays towards endothelial cells and adipocytes were done as reported (Khan et al., 2008).

HemSCs [4] = experiment: Endothelial differentiation of HemSCs; assay type: cell-based, human; conditions: in vitro
Procedure: as §6, §7

[5] = system: HemSCs and cbEPCs in Matrigel; experiment: Regression of pre-existing vessels, contrast-enhanced micro-ultrasonic imaging of Matrigel implants; assay type: in vivo, nude mice; conditions: 2 mg/kg i.p.
Procedure: To test this, contrast-enhanced micro-ultrasonic imaging was used to measure blood flow in the Matrigel implants. […] For the experiment, mice were injected with cells and imaged at day 7 to record baseline blood flow in the implants. Mice were then randomized into two groups: Rapamycin, 2 mg/kg by i.p. injection or vehicle alone by i.p. injection. At day 17, follow-up imaging was performed.
Contrast-enhanced high resolution ultrasonic (US) imaging of the blood flow in Matrigel implants was performed using a Vevo 770 System with a 40-MHz RMV scanhead (Visual Sonics) (Loveless et al., 2009; Olive et al., 2009). MicroMarker non-targeting contrast agent (Visualsonics) was prepared according to manufacturer's guidelines. For imaging, mice were anesthetized with 2% isofluorane, coupling gel was applied to cover the entire region of interest, and 2-D B-mode scout images established the central slice of the Matrigel. The transducer was placed such that the 6 mm focal spot converged at the center of the Matrigel. Baseline images were acquired in Contrast Mode, and a 50 μL bolus of contrast agent suspension was administered via tail vein catheter during acquisition of a second contrast video.

HemSCs [6] = experiment: Viability / cell morphology by phalloidin staining; assay type: cell-based, human
HemSCs [7] = experiment: Pro-angiogenic cytokine expression (antibody array, ELISA, qPCR); assay type: cell-based, human
Procedure: To investigate whether corticosteroids and Rapamycin share common mechanisms for suppressing HemSCs-mediated vascularization, the effect of Rapamycin on expression of a panel of 43 pro-angiogenic proteins was evaluated.
Angiogenic Cytokine Antibody Array. Conditioned media from HemSCs and HemECs, treated or untreated with dexamethasone or Rapamycin, were analyzed for protein expression using RayBio® Human Angiogenesis Antibody Array C Series 1000 (RayBiotech); according to the manufacturer's instructions. Blots were analyzed by with image J software (NIH).
(§8) An enzyme-linked immunoassay (ELISA) was performed using Quantikine Human VEGF and PLGF (R&D Systems). […]

HemSCs [8] = experiment: PCNA immunostaining of HemSCs; assay type: cell-based, human; conditions: 10 ng/ml
Procedure: as §2
Human-specific CD31 (DakoCytomation) immunostaining was performed as described (MeleroMartin et al., 2007), (Roelofs et al., 2003). PhosphoAKT/VE-cadherin double immunofluorescence was done on cryosections. Slides were fixed with 8% paraformaldehyde, blocked with 1% BSA and incubated with anti-VE-Cadherin (goat, Santa Cruz Biotechnology, Santa Cruz, Calif.) 1:100 for one hour, followed by anti-goat Texas-Red (Vector Labs, Burlingame, Calif.) 1:200. Following an additional blocking step (1% BSA, 0.1% Triton-X), AntipAKT (mouse, Cell Signaling, Danvers, Mass.) 1:100, was applied over night in 4° C. and next, anti-mouse Alexa Fluor 488 (Invitrogen) 1:300 for one hour. PCNA immunostaining was done using anti-PCNA 1:500 (mouse, Santa Cruz Biotechnology, Santa-Cruz, Calif.). For immunostaining of paraffing embedded Matrigel explants, antigen retrieval was done by citrate buffer. Sections were blocked by 5% horse serum and incubated with a secondary anti-mouse horseradish peroxidase (HRP) conjugate at 1:300 (Vector Labs, Burlingame, Calif.). For immunofluorescence, cells were fixed with methanol, blocked by 1% BSA.

[9] = system: normal human dermal fibroblasts (NHDF); experiment: NHDF proliferation dose-response; assay type: cell-based; conditions: FIG. 1A
Procedure: as §1, §2

[10] = system: HemSCs and cbEPCs in Matrigel; experiment: Two cell model of IH (HemSCs and cbEPCs in Matrigel), systemic drug; assay type: in vivo, nude mice; conditions: daily intra-peritoneal injection; for vascularization of Matrigel implants / formation of blood vessels (MVD): compared with vehicle
Procedure: (§3) Next, the effect of systemic Rapamycin was tested in a two cell model of IH described previously (Greenberger et al., 2010). HemSCs and cbEPCs were mixed with Matrigel and injected subcutaneously in nude mice. This two-cell model has advantages over injecting HemSC alone: first it is more robust and thus more sensitive for detecting dose-response activity. Second, it allows one to test separately the effect of rapamycin on the HemSC versus cbEPCs, which are primary ECs isolated from cord blood that serve as prototypic young ECs. Rapamycin was administered daily by intra-peritoneal injection.
To test this concept, mice were given i.p. injections of low dose of dexamethasone (0.25 mg/kg), low dose of Rapamycin (0.25 mg/kg) or the combination of both.
(§4) Nude/Nude mice were purchased from Massachusetts General Hospital animal facility. Procedures were approved by the Animal Care and Use Committees of the Children's Hospital, Boston. Anesthesia was induced with 4% isofluorane and maintenance in 1-3% oxygen. Mice were anesthetized once for up to 5 min. The one cell and two cell models of IH were performed as reported (Greenberger et al., 2010; Khan et al., 2008) and microvessel density (MVD) was assessed by counting red blood cell-filled lumens (Melero-Martin et al., 2007). Values reported for each experimental condition correspond to the average MVD value±standard error of the mean (SEM) obtained from all the individual animals.
Rapamycin, Everolimus and Temsirolimus were purchased from LC Laboratories. Drugs were dissolved in DMSO followed by solvent solution (5% polyethylene glycol, 0.2% carboxymethylcellulose and 0.25% Tween-80 in H2O). Aliquots were kept in −20° C. Mice were given daily intra-peritoneal (i.p.) injections containing 200 μl of drug or the vehicle alone.

HemSCs [11] = experiment: Clonogenic assay (self-renewal); assay type: cell-based, human; conditions: pre-treatment 20 ng/ml 4 days, colonies at 9 days
Procedure: To test self-renewal capacity of HemSCs, a clonogenic assay was performed (Ingram et al., 2004).
HemSCs were incubated with Rapamycin 20 ng/ml or DMSO, as a control, for 4 days. Following washout of the drug, cells were serially diluted to 8 cells per ml and plated in 384 well plates, 40 μl/well. Medium was replaced every 48 hours. At day 9, cells were fixed and stained with Hoechst. Following image capture by automated fluorescence microscopy, colony formation and the number of cells/colony were determined by quantifying the number of wells with Hoechst-stained nuclei and the number of Hoechst-stained nuclei/well using MetaXpress Software.

cbEPCs [12] = experiment: Two cell model of IH with cbEPCs pre-treated in vitro; assay type: in vivo, nude mice
HemSCs [13] = experiment: HemSC proliferation dose-response; assay type: cell-based, human
Procedure: as §1, §2
(§5) To do this, the anti-proliferative drug Roscovitine, a purine analogue andcyclin-dependent kinase inhibitor (De Azevedo et al., 1997) (Meijer et al., 1997) was used. First, the effect of Roscovitine on HemSCs proliferation was titrated in vitro. […] Next, HemSCs were pre-treated in vitro for three days with either Roscovitine or Rapamycin, the drugs washed out, and the cells then injected with untreated cbEPC into mice.

HemSCs [14] = experiment: Two cell model of IH with HemSCs pre-treated in vitro; assay type: in vivo, nude mice
From the text: To test whether or not HemSCs are a target of Rapamycin, versus the cbEPCs or a murine host cell, HemSCs were pre-treated with Rapamycin for three days in vitro, the drug was washing out, and the Rapamycin-treated or control HemSCs were resuspended with cbEPCs in Matrigel, and injected into mice.
as §5, §4

HemSCs in Matrigel = experiment: One cell model of IH (HemSC implanted alone); assay type: in vivo, nude mice; conditions: i.p. on days 1-6, explanted day 7
Procedure: as §3, §4

HemSCs [15] = experiment: SMC/pericyte marker expression in HemSCs (qPCR, Western blot); assay type: cell-based, human
[16] = system: human ECs, including HemECs; experiment: PLGF-1 expression in endothelial cells (ELISA, RT-PCR); assay type: cell-based; conditions: 48 hours of incubation
Procedure: FIG. 11C depicts a graph of quantitative ELISA analysis of PLGF-1 protein secreted from HemECs and Human Dermal Microvascular Endothelial Cells (HDMECs) following 48 hours of incubation with Rapamycin. FIG. 11D depicts a graph of the dose-response of Rapamycin on PLGF-1 mRNA expression in HemECs. Quantitative RT-PCR analyses of HemECs PLGF-1 expression following 48 hours of incubation with Rapamycin at the indicated concentration. FIG. 11E depicts a graph of the dose-response of Rapamycin on PLGF-1 protein secretion from HemECs. PLGF-1 was measured by quantitative ELISA analysis following 48 hours of incubation with Rapamycin at the indicated concentration.
as §8

C[C@@H]1C[C@H]2[C@@H]3CCC4=CC(=O)C=C[C@]4(C)[C@@]3(F)[C@@H](O)C[C@]2(C)[C@@]1(O)C(=O)CO [Dexamethasone, dexamethasone]
VEGF-A, IL-6, MMP-1, MCP-1 and UPAR expression (HemSCs [1]): suppressed

COC(=O)C1=C(C)NC(C)=C(C(=O)OC)C1c1ccccc1[N+](=O)[O-] [Nifedipine, nifedipine]
spontaneous Ca2+ oscillations (HemSC; 10 uM, Rapamycin-treated HemSC): cessation of oscillations

CO[C@H]1C[C@@H]2CC[C@@H](C)[C@@](O)(O2)C(=O)C(=O)N2CCCC[C@H]2C(=O)O[C@H]([C@H](C)C[C@@H]2CC[C@@H](O)[C@H](OC)C2)CC(=O)[C@H](C)/C=C(\C)[C@@H](O)[C@@H](OC)C(=O)[C@H](C)C[C@H](C)/C=C/C=C/C=C/1C [Rapamycin, rapamycin]
sensitivity of BM-MSCs proliferation compared with HemSCs (BM-MSCs): less sensitive | constitutive and serum/growth factor stimulated levels of phosphorylated 4EBP1 (mTOR): dose-dependent decrease | growth of cbEPCs (cbEPCs [2]): suppressed growth | expression of adipogenic markers LPL, C/EBP-α and accumulation of lipid droplets (HemSCs [3]): blocked expression | ability of HemSCs to differentiate towards an endothelial phenotype (HemSCs [4]): No effect | vascularization of Matrigel implants macroscopically and by histological analysis [5]: less vascularized | blood flow in the implant (contrast intensity) ([5]; day 7 to day 17): reduced blood flow | viability (normal cell morphology, phalloidin staining) (HemSCs [6]): not affected | expression of VEGF-A by HemSCs at the mRNA or protein level (HemSCs [7]): did not block | angiogenin and PLGF-1 expression (HemSCs [7]; in HemSCs and cbEPCs): downregulated | suppression of percentage of PCNA-positive HemSCs (HemSCs [8]): 80% | sensitivity of NHDF proliferation compared with HemSCs [9]: less sensitive | de novo formation of human CD31-positive blood vessels ([10]; anti-human CD31 staining): inhibited the de novo formation | vascularization of Matrigel implants / formation of blood vessels (MVD) [10]: dose-dependent inhibition | appearance of colonies with >500 cells (HemSCs [11]): abolished | decrease in the number of HemSC colonies formed (HemSCs [11]): 60% | blood vessel formation after pre-treatment of cbEPCs (cbEPCs [12]): no effect | inhibition of HemSCs proliferation (HemSCs [13]; concentrations of 1 ng/ml and higher): ~40% | inhibition of microvessel density (HemSCs [14]; HemSCs pre-treated in vitro three days, washed out, injected with untreated cbEPC (Roscovitine comparison experiment)): 60% | inhibition of blood vessel formation (HemSCs [14]; HemSCs pre-treated three days in vitro, drug washed out, injected with cbEPCs): 80% | vessel formation, HemSC implanted alone (HemSCs in Matrigel): inhibited vessel formation | functional features of SMCs (calcium influx) (HemSC; HemSC treated 20 ng/ml six days): express L-type voltage gated channels | expression levels of calponin, NG2 and PDGF-Rβ (HemSCs [15]; FIG. 10A): unchanged | SM22-alpha and αSMA at the protein level (HemSCs [15]; incubation four days): increased | smMHC and SM22-alpha transcript levels (HemSCs [15]; incubation four days): upregulation | endogenous PLGF-1 [16]: dose-dependent suppression

CC[C@H](CO)Nc1nc(NCc2ccccc2)c2ncn(C(C)C)c2n1 [Roscovitine]
inhibition at 3.125 µM (HemSCs [13]; Homo sapiens, read-out: inhibition of HemSCs proliferation): 55% | inhibition of microvessel density (in words) (HemSCs [14]; HemSCs pre-treated in vitro three days, washed out, injected with untreated cbEPC): did not

CO[C@H]1C[C@@H]2CC[C@@H](C)[C@@](O)(O2)C(=O)C(=O)N2CCCC[C@H]2C(=O)O[C@H]([C@H](C)C[C@@H]2CC[C@@H](OCCO)[C@H](OC)C2)CC(=O)[C@H](C)/C=C(\C)[C@@H](O)[C@@H](OC)C(=O)[C@H](C)C[C@H](C)/C=C/C=C/C=C/1C [everolimus]
vascularization of Matrigel implants / formation of blood vessels (MVD) [10]: significantly inhibited

CO[C@H]1C[C@@H]2CC[C@@H](C)[C@@](O)(O2)C(=O)C(=O)N2CCCC[C@H]2C(=O)O[C@H]([C@H](C)C[C@@H]2CC[C@@H](OC(=O)C(C)(CO)CO)[C@H](OC)C2)CC(=O)[C@H](C)/C=C(\C)[C@@H](O)[C@@H](OC)C(=O)[C@H](C)C[C@H](C)/C=C/C=C/C=C/1C [temsirolimus]
vascularization of Matrigel implants / formation of blood vessels (MVD) [10]: significantly inhibited
